{
  "source": "patent EP0693064B1",
  "about": "“HYDROPHOBIC AMINOCOUMARIN DERIVATIVES AND THEIR USE AS PROTEOLYTIC ENZYME SUBSTRATES OR IN THE PREPARATION OF SUCH SUBSTRATES” (priority 1993, dated 1994)",
  "key": {"Escherichia coli": {"test_system": "Escherichia coli", "experiment": "Agar test with incorporated fluorogenic substrates (L-alanine aminoaryl peptidase activity), fluorescence of colonies", "type": "cell-based", "conditions": "Gram -, substrate in agar 10 to 300 µg/ml, pH 7, overnight at 37°C, UV 365 nm", "excerpt": "(§1) Cette différenciation fait appel à une méthode spécifique de discrimination optique des bactéries à coloration de Gram(+) ou Gram(-), qui est réalisée par l'utilisation de substrats fluorogénes de la L-alanine amino arylpeptidase, activité enzymatique retrouvée principalement dans la paroi des bactéries à coloration de Gram(-), comme il est décrit par Cerny G dans European Journal of Applied Microbiology, 1976, 3, p. 223-225, et 1978 5, p. 113-122.\n(§2) Dans cet exemple, on utilise cette méthode de détection des activités enzymatiques bactériennes de la L-alanine aminoaryl peptidase avec les substrats fluorogènes S107, S108 et S109 utilisant les composés 10e, 10c et 10d des exemples 15, 13 et 14. Ces substrats sont incorporés à la gélose selon la méthode énoncée par Manafi & Kneifel dans Journal of Applied Bacteriology 1990, 69, p. 822-827.\n(§3) Tous les substrats (composés 10c, 10d et […]) sont incorporés à la gélose à différentes concentrations couvrant une gamme de 10 à 300µg/ml.\n(§4) Les composés sont préalablement dissous dans le DMSO et dilués dans de l'eau bi-distillée pour constituer des solutions mères à 800µg/ml, qui peuvent être conservées au moins une semaine à +4°C. Les solutions mères sont diluées ensuite pour délivrer les paliers de concentrations définis à 10, 50, 100, 200 et 300µg/ml.\n(§5) Ces substrats sont ajoutés à la gélose à 45°C (une température de 85°C fut tolérée par les substrats), préalablement tamponnée à pH=7 et stérilisée par autoclavage. Les boîtes de gélose sont ensuite ensemencées d'une suspension de colonies, stérilement, à l'öse de platine par stries transversales et selon la méthode des quadrants. L'incubation est poursuivie durant une nuit à 37°C.\n(§6) Pour chaque concentration on réalise un banc sans colonies et pour chaque type bactérien, un contrôle de culture sans substrat, de sorte que l'on ne puisse observer que les effets de la présence simultanée des colonies et du substrat incorporé à la gélose.\n(§7) La révélation des bactéries Gram(-), rendues fluorescentes par le fluorophore S107, S108 ou S109 libéré est réalisée sous lampe UV à une longueur d'onde d'excitation de 365nm, compatible avec les dispositifs commercialisés. L'émission fluorescente impressionne un papier film 35mm Kodak® Ektar® 1000/30° pour un temps d'exposition au 1/60ème de seconde-process C-41."}, "Enterococcus faecalis": {"test_system": "Enterococcus faecalis", "experiment": "Agar test with incorporated fluorogenic substrates (L-alanine aminoaryl peptidase activity), fluorescence of colonies", "type": "cell-based", "conditions": "Gram +, substrate in agar 10 to 300 µg/ml, pH 7, overnight at 37°C, UV 365 nm", "excerpt": "as §1, §2, §3, §4, §5, §6, §7"}, "[1]": {"experiment": "Diffusion of the released dye in the agar", "type": "physicochemical", "conditions": "in the agar (gélose)", "experimental": "as §3, §5\nLa révélation des bactéries Gram(-), rendues fluorescentes par le fluorophore S107, S108 ou S109 libéré est réalisée sous lampe UV à une longueur d'onde d'excitation de 365nm, compatible avec les dispositifs commercialisés. […]\nLes colorants ne diffusent pas dans la gélose, de sorte que la fluorescence n'est émise que par les colonies bactériennes au site de leur croissance. Egalement, les réactions positives (fluorescence claire, lumineuse intense, des colonies Gram négatives sur un fond translucide, estompé bleu/vert pâle, fluorescence d'intensité plus faible pour les bactéries Gram positives) s'observent dès les concentrations faibles à 10µg/ml, ce qui confirme l'utilité de la nature hydrophobe des substrats, de l'absence de diffusion qui en découle et donc de l'efficacité des substrats préparés."}, "bactéries": {"test_system": "bactéries", "experiment": "Toxicity of the substrates towards the bacteria in the agar test", "type": "cell-based", "conditions": "substrate in agar 10 to 300 µg/ml, high concentration = 300 µg/ml", "experimental": "as §3, §4, §5, §6"}, "[2]": {"test_system": "bactéries Gram(+) et Gram(-)", "experiment": "Differentiation of Gram(+) and Gram(-) bacteria with fluorogenic substrates incorporated in agar", "type": "cell-based", "conditions": "in agreement with Gram staining", "excerpt": "Exemple 22. Cet exemple illustre l'utilisation des dérivés de coumarines des exemples 13, 14 et 15 pour La différenciation des bactéries Gram(+) et Gram(-)par incorporation de ces dérivés de coumarines et révélation des colonies fluorescentes.\nas §1, §2\nTous les substrats (composés 10c, 10d et […]) sont incorporés à la gélose à différentes concentrations couvrant une gamme de 10 à 300µg/ml. […]"}},
  "note": "“Also recorded” adds a separate entry of the source.",
  "data": [
    {"smiles": "CCCCCCCCCc1cc(=O)oc2cc(NC(=O)[C@H](C)N)ccc12", "note": "[S107]", "values": [
      {"measurement": "Test gélose aux substrats (fluorescence)", "setting": "Escherichia coli", "result": "Fluorescence moyenne"},
      {"measurement": "Test gélose aux substrats (fluorescence)", "setting": "Enterococcus faecalis", "result": "Fluorescence très faible"},
      {"measurement": "Diffusion", "setting": "[1]", "result": "non diffusibles; also recorded: Diffusion nulle"},
      {"measurement": "Toxicité", "setting": "bactéries", "result": "faible; also recorded: non toxiques; also recorded: Toxicité partielle à forte concentration"}
    ]},
    {"smiles": "CCCCCCc1cc(=O)oc2cc(NC(=O)[C@H](C)N)ccc12", "note": "[S108]", "values": [
      {"measurement": "Test gélose aux substrats (fluorescence)", "setting": "Escherichia coli", "result": "Fluorescence très importante"},
      {"measurement": "Test gélose aux substrats (fluorescence)", "setting": "Enterococcus faecalis", "result": "Fluorescence faible"},
      {"measurement": "Diffusion", "setting": "[1]", "result": "non diffusibles; also recorded: Diffusion nulle"},
      {"measurement": "discrimination des bactéries Gram négatives des bactéries Gram positives", "setting": "[2]", "result": "très efficaces"},
      {"measurement": "Toxicité", "setting": "bactéries", "result": "non toxiques; also recorded: Toxicité nulle"}
    ]}
  ]
}
